Results from publication PMC11242173 (International Journal of Molecular Sciences, 2024).
Converted amounts (≈) assume the structure as drawn.

Legend:
HCT-8 cells = assay: Cytotoxicity (cell viability) assay in HCT-8 cells; format: cell-based, human; settings: uninfected HCT-8 cells, 72 h
Method: HCT-8, MRC5, A549, and Calu-3 cells seeded on 96-well plates 24 h before the assay were exposed to increasing concentrations of compounds or the vehicle as a control. Cytotoxicity was evaluated after 48 h for MRC5 and Calu-3 cells or after 72 h for A549 and HCT-8 cells, using the CellTiter-Glo assay (Promega, Milan, Italy) or the ATPlite assay (PerkinElmer, Milan, Italy). The cytotoxicity of the tested compounds was expressed as cytotoxic concentration (CC50).

hCoV-OC43 = assay: Focus forming reduction assay (FFRA), hCoV-OC43 in HCT-8 cells; settings: for EC50 / EC90: hCoV-OC43, FFRA in HCT-8 cells, treatment before, during and after infection, 72 h p.i.; for SI (ratio of CC50 to EC50): hCoV-OC43, HCT-8 cells

Oc1cc(O)c2c(c1)OC1(c3ccc(O)c(O)c3)Oc3cc(O)c4c(c3C2C1O)OC(c1ccc(O)c(O)c1)C(O)C4 (centres unmarked) [PAC A1, PAC-A1]
CC50 (HCT-8 cells): >400 µg/mL
EC50 (hCoV-OC43): 4.10 ± 0.71 µg/mL (≈ 7.11 µM)
EC90 (hCoV-OC43): 139.35 ± 2.06 µg/mL (≈ 242 µM)
SI (ratio of CC50 to EC50) (hCoV-OC43): >97.56

Oc1cc(O)c2c(c1)O[C@@]1(c3ccc(O)c(O)c3)Oc3cc(O)c4c(c3[C@@H]2[C@H]1O)O[C@H](c1ccc(O)c(O)c1)[C@H](O)C4 [PAC A2, PAC-A2]
CC50 (HCT-8 cells): >400 µg/mL
EC50 (hCoV-OC43): 6.58 ± 0.40 µg/mL (≈ 11.4 µM)
EC90 (hCoV-OC43): 100.74 ± 0.66 µg/mL (≈ 175 µM)
SI (ratio of CC50 to EC50) (hCoV-OC43): >60.79

Oc1cc(O)c2c(c1)O[C@H](c1ccc(O)c(O)c1)[C@H](O)[C@H]2c1c(O)cc(O)c2c1O[C@H](c1ccc(O)c(O)c1)[C@@H](O)C2 [PAC B1, PAC-B1]
CC50 (HCT-8 cells): >400 µg/mL
EC50 (hCoV-OC43): 167.02 ± 6.51 µg/mL (≈ 289 µM)
EC90 (hCoV-OC43): >400 µg/mL
SI (ratio of CC50 to EC50) (hCoV-OC43): >2.39

Oc1cc(O)c2c(c1)O[C@H](c1ccc(O)c(O)c1)[C@H](O)[C@H]2c1c(O)cc(O)c2c1O[C@H](c1ccc(O)c(O)c1)[C@H](O)C2 [PAC B2, PAC-B2]
CC50 (HCT-8 cells): >400 µg/mL
EC50 (hCoV-OC43): 142.41 ± 8.93 µg/mL (≈ 246 µM)
EC90 (hCoV-OC43): >400 µg/mL
SI (ratio of CC50 to EC50) (hCoV-OC43): >2.81

Oc1cc(O)c2c(c1)O[C@H](c1ccc(O)c(O)c1)[C@@H](O)[C@@H]2c1c(O)cc(O)c2c1O[C@H](c1ccc(O)c(O)c1)[C@@H](O)C2 [PAC B3, PAC-B3]
CC50 (HCT-8 cells): >400 µg/mL
EC50 (hCoV-OC43): 134.92 ± 4.14 µg/mL (≈ 233 µM)
EC90 (hCoV-OC43): >400 µg/mL
SI (ratio of CC50 to EC50) (hCoV-OC43): >2.96
